Literature values, collected in patent US20050142185A1, “Softgel formulations of bisphosphonates bone resorption inhibitors” (priority 2003, published 2005).

Legend:
[1] = marketed tablet not taken with enough water, or patient not upright for about one-half hour after taking
[2] = taken either concurrently with or 2 hours after breakfast

## NCCCC(O)(P(=O)(O)O)P(=O)(O)O [alendronate, 4-amino-1-hydroxybutylidene-1,1-biphosphonic acid]
[1]
  side effects reported: esophageal irritation and erosion
[2]
  impairment of availability: > 85%
